Literature values, collected in paper PMC10386743, “Application of Ligand- and Structure-Based Prediction Models for the Design of Alkylhydrazide-Based HDAC3 Inhibitors as Novel Anti-Cancer Compounds” (Pharmaceuticals, 2023).

Tested on: HDAC3
Conditions: newly designed compounds

| pIC50 HDAC3 (HDAC3 experimental pIC50) | Structure (SMILES) |
| --- | --- |
| <5.00 | CCCCCCNNC(=O)c1cnc(NCc2cccc3ccccc23)nc1 [Compound 81] |
| <5.00 | CCCCCCNNC(=O)c1cnc(NCCc2ccccc2)nc1 [Compound 82] |
| 5.52 | CCCCCCNNC(=O)c1cnc(NCc2ccccc2)nc1 [Compound 83] |
| <5.00 | CCCCCCNNC(=O)c1cnc(NCc2ccc(CNC(C)=O)cc2)nc1 [Compound 84] |
| 7.52 | CCCNNC(=O)c1cnc(N2CCN(Cc3c[nH]c4ccccc34)CC2)nc1 [Compound 85] |
| 7.00 | CCCCCCNNC(=O)c1cnc(N2CCN(Cc3c[nH]c4ccccc34)CC2)nc1 [Compound 86] |
| 6.52 | CCCCCCNNC(=O)c1cnc(N2CCN(Cc3cn(C)c4ccccc34)CC2)nc1 [Compound 87] |
| 6.00 | CCCCCCNNC(=O)c1cnc(N2CCN(CCc3c[nH]c4ccccc34)CC2)nc1 [Compound 88] |
| 5.85 | CCCCCCNNC(=O)c1cnc(N2CCN(CCc3cn(C)c4ccccc34)CC2)nc1 [Compound 89] |
